Assays:
Assay in all cases: Cell proliferation assay (CellTiter-Glo)
Assay type in all cases: cell-based
[1] = tested on: KM12 (TPM3-TRKA); settings: Homo sapiens, anti-cell proliferation, 72 hours
Experimental: (§1) Cell Lines and Cell Culture:
(§2) Colorectal cell line KM 12 (harboring endogenous TPM3-TRKA fusion gene) was obtained from NCI. Acute myelogenous cell line KG-1 (harboring endogenous OP2-FGFR1 fusion gene) were purchased from ATCC.
(§3) Cell Proliferation Assays:
(§4) Two thousand cells per well were seeded in 384 well white plate for 24 hrs, and then treated with compounds for 72 hours (37° C., 5% CO2). Cell proliferation was measured using CellTiter-Glo luciferase-based ATP detection assay (Promega) following the manufactures's protocol. IC50 determinations were performed using GraphPad Prism software (GraphPad, Inc., San Diego, Calif.).

[2] = tested on: KG-1 cell (OP2-FGFR1); settings: Homo sapiens, anti-cell proliferation, 72 hours
Experimental: as §1, §2, §3, §4

[3] = molecular target: T1, BaF3 EML4-ALK (Homo sapiens, UniProt Q9UM73); settings: anti-cell proliferation, 72 hours
T1 construct: The EML4-ALK gene (variant 1) was synthesized at GenScript and cloned into pCDH-CMV-MCS-EF1-Puro plasmid (System Biosciences, Inc); fused on or other part: EML4 N-terminal part (variant 1: exons 1-13, with the coiled-coil that oligomerises the fusion) fused to the intracellular part of ALK, which contains the kinase domain; Q9HC35 (Echinoderm microtubule-associated protein-like 4)
Experimental: Cloning and Ba/F3 or NIH3T3 Stable Cell Line Creation
The EML4-ALK gene (variant 1) was synthesized at GenScript and cloned into pCDH-CMV-MCS-EF1-Puro plasmid (System Biosciences, Inc). Ba/F3-EML4-ALK wild type were generated by transducing Ba/F3 cells with lentivirus containing EML4-ALK wide type. Stable cell lines were selected by puromycin treatment, followed by IL-3 withdrawal. Briefly, 5×10^6 Ba/F3 cells were transduced with lentivirus supernatant in the presence of 8 μg/mL protamine sulfate. The transduced cells were subsequently selected with 1 μg/mL puromycin in the presence of IL3-containing medium RPMI1640, plus 10% FBS. After 10-12 days of selection, the surviving cells were further selected for IL3 independent growth.
as §3, §4

T1 sequence (Q9UM73 whole entry, stated change not applied, the tested form may be a part): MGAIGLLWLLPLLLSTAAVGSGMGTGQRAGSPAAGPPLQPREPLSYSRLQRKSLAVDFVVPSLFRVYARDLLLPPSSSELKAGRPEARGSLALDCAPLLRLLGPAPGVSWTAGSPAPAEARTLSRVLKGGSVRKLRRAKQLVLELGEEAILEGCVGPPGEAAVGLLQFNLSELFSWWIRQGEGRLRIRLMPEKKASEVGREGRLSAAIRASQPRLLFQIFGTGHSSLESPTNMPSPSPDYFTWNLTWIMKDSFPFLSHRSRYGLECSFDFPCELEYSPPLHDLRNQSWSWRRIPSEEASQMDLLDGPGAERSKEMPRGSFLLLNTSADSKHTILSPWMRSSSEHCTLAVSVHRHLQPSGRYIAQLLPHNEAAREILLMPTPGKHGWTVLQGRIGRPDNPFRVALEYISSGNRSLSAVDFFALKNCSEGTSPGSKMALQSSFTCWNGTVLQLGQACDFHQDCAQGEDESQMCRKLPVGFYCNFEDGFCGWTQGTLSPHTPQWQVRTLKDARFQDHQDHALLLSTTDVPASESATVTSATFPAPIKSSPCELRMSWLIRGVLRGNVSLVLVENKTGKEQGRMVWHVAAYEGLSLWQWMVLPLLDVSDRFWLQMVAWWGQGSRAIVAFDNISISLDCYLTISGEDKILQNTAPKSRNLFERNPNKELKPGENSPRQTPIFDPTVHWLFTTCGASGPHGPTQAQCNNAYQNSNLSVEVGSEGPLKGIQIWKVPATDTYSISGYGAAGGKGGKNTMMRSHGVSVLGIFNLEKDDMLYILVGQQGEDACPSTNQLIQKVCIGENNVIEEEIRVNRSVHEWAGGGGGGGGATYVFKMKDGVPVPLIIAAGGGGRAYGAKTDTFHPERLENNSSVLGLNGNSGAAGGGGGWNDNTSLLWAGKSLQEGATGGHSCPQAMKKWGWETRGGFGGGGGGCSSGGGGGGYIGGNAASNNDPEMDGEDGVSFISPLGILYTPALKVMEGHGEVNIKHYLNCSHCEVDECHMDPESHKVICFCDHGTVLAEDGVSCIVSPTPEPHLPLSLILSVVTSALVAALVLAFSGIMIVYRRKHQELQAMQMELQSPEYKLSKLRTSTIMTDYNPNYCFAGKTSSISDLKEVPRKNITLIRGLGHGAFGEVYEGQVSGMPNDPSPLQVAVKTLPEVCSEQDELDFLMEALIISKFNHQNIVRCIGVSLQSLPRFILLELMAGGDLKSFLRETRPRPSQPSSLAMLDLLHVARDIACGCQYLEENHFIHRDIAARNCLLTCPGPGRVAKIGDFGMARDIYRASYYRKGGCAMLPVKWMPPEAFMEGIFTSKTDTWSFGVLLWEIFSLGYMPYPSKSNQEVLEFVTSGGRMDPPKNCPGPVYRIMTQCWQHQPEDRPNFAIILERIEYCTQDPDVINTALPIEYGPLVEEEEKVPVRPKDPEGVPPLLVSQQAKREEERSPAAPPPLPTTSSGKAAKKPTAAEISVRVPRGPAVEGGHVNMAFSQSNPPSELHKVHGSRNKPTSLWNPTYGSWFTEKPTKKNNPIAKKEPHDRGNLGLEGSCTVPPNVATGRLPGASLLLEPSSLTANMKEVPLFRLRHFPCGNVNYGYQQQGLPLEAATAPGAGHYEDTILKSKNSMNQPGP

Structure (SMILES) | IC50 [1] [µM] | IC50 [2] [µM] | IC50 [3] [µM]
C[C@@H]1COc2cn3ncc4c3nc2N1Cc1cc(F)cnc1O[C@@H](C)CCNC4=O [Compound 36, (8S,16R)-12-fluoro-8,16-dimethyl-5,6,7,8,16,17-hexahydro-4H,14H-1,19-(metheno)[1,4]oxazino[4,3-e]pyrazolo[3,4-h]pyrido[2,3-b] [1,5,7,11]oxatriazacyclotetra-decin-4-one] | < 0.0002 | 0.0253 | 0.0609
C[C@@H]1COc2cn3ncc4c3nc2N1Cc1cc(F)ccc1OCCNC4=O [Compound 3, (4R,12S)-8-fluoro-4,12-dimethyl-3,4,13,14-tetrahydro-6H-18,1-(metheno)[1,4]oxazino[3,4-i]-pyrazolo[4,3-f][1,4,8,10]benzo-xatriazacyclotridecin-15(12H)-one] | 0.0002 | 0.271 | 0.0942
C[C@@H]1COc2cn3ncc4c3nc2N1Cc1cc(F)cnc1OC[C@@H](O)CNC4=O [Compound 54, (7S,16R)-12-fluoro-7-hydroxy-16-methyl-5,6,7,8,16,17-hexa-hydro-4H,14H-1,19-(metheno)-[1,4]oxazino[4,3-e]pyrazolo-[3,4-h]pyrido[2,3-b][1,5,7,11]-oxatriazacyclotetradecin-4-one] | < 0.0002 | 0.678 | 0.661
C[C@@H]1COc2cn3ncc4c3nc2N1Cc1cc(F)cnc1O[C@H]1CC[C@H](C1)NC4=O [Compound 87, (6R,9S,17R)-13-fluoro-17-methyl-6,7,8,9,17,18-hexahydro-15H-6,9-methano-1,20-(metheno)[1,4]-oxazino[4,3-e]pyrazolo[3,4-h]-pyrido[2,3-b][1,5,7,11]oxatriaza-cyclopentadecin-4(5H)-one] | < 0.0002 | 0.0175 | 0.015
C[C@@H]1COc2cn3ncc4c3nc2N1Cc1cc(F)cnc1OC[C@H](O)CNC4=O [Compound 89, (7R,16R)-12-fluoro-7-hydroxy-16-methyl-5,6,7,8,16,17-hexa-hydro-4H,14H-1,19-(metheno)-[1,4]oxazino[4,3-e]pyrazolo[3,4-h]pyrido[2,3-b][1,5,7,11]oxatriaza-cyclotetradecin-4-one] | < 0.0002 | 0.394 | 1.89
COC[C@H]1COc2ncc(F)cc2CN2c3nc4c(cnn4cc3OC[C@H]2C)C(=O)N1 [Compound 92, (4R,13S)-8-fluoro-13-(methoxy-methyl)-4-methyl-3,4,13,14-tetrahydro-6H-18,1-(metheno)-[1,4]oxazino[3,4-i]pyrazolo[4,3-f]pyrido[3,2-l][1,4,8,10]oxatriaza-cyclotridecin-15(12H)-one] | 0.0057 | 0.329 | 2
C[C@@H]1COc2ncc(F)cc2CN2c3nc4c(cnn4cc3OC[C@H]2c2ccccc2)C(=O)N1 [Compound 46, (4R,13R)-8-fluoro-13-methyl-4-phenyl-3,4,13,14-tetrahydro-6H-18,1-(metheno)[1,4]oxazino[3,4-i]pyrazolo[4,3-f]pyrido[3,2-1][1,4,8,10]oxatriazacyclotridecin-15(12H)-one] | < 0.0002 | 0.0002 | 1.06
C[C@@H]1COc2cn3ncc4c3nc2N1Cc1cc(F)cnc1OCC1(CCC1)NC4=O [Compound 45, (4′R)-8′-fluoro-4′-methyl-3′H,4′H,6′H,12′H,14′H,15′H-spiro[cyclobutane-1,13′-[2,11]-dioxa[5,10,14,17,18,19]hexaaza-[18,1](metheno)[1,4]oxazino[3,4-i]pyrazolo[4,3-f]pyrido[3,2-l] [1,4,8,10]oxatriazacyclotridecin]-15′-one] | < 0.0002 | 0.005 | 0.0027
C[C@@H]1COc2cn3ncc4c3nc2N1Cc1cc(F)cnc1O[C@@H]1CC[C@@H](C1)NC4=O [Compound 86, (6S,9R,17R)-13-fluoro-17-methyl-6,7,8,9,17,18-hexahydro-15H-6,9-methano-1,20-(metheno)[1,4]-oxazino[4,3-e]pyrazolo[3,4-h]-pyrido[2,3-b][1,5,7,11]oxatriaza-cyclopentadecin-4(5H)-one] | < 0.0002 | 0.0027 | 0.0073
C[C@H]1CNC(=O)c2cnn3cc4c(nc23)N(Cc2cc(F)cnc2O1)C1(CC1)CO4 [Compound 27, (12′S)-8′-fluoro-12′-methyl-3′H,6′H,12′H,13′H,14′H,15′H-spiro[cyclopropane-1,4′-[2,11]-dioxa[5,10,14,17,18,19]hexaaza-[18,1](metheno)[1,4]oxazino[3,4-i]pyrazolo[4,3-f]pyrido[3,2-l] [1,4,8,10]oxatriazacyclotridecin]-15′-one] | < 0.0002 | 3.57 | 0.604
CC[C@@H]1COc2cn3ncc4c3nc2N1Cc1cc(F)cnc1OCC(C)(C)NC4=O [Compound 65, (4R)-4-ethyl-8-fluoro-13,13-dimethyl-3,4,13,14-tetrahydro-6H-18,1-(metheno)[1,4]oxazino[3,4-i]pyrazolo[4,3-f]pyrido[3,2-l][1,4,8,10]oxatriazacyclotridecin-15(12H)-one] | < 0.0002 | 0.0421 | 0.164
C[C@@H]1COc2cn3ncc4c3nc2N1Cc1cc(F)cnc1OCC(F)(F)CNC4=O [Compound 79, (16R)-7,7,12-trifluoro-16-methyl-5,6,7,8,16,17-hexahydro-4H,14H-1,19-(metheno)[1,4]oxazino[4,3-e]pyrazolo[3,4-h]pyrido[2,3-b][1,5,7,11]oxatriazacyclotetra-decin-4-one] | < 0.0002 | 0.0099 | 0.0317
C[C@@H]1COc2cn3ncc4c3nc2N1Cc1cc(F)cnc1OC[C@@H](C(F)(F)F)NC4=O [Compound 85, (4R,13S)-8-fluoro-4-methyl-13-(trifluoromethyl)-3,4,13,14-tetrahydro-6H-18,1-(metheno)-[1,4]oxazino[3,4-i]pyrazolo[4,3-f]pyridol[3,2-l][1,4,8,10]oxatriaza-cyclotridecin-15(12H)-one] | < 0.0002 | 0.0173 | 0.0127
C[C@@H]1COc2ncc(F)cc2CN2CC(F)(F)COc3cn4ncc(c4nc32)C(=O)N1 [Compound 74, (14R)-4,4,9-trifluoro-14-methyl-4,5,14,15-tetrahydro-3H,7H-19,1-(metheno)[1,4]oxazepino[3,4-i]-pyrazolo[4,3-f]pyrido[3,2-l] [1,4,8,10]oxatriazacyclotridecin-16(13H)-one] | 0.084 | 3 | > 10
C[C@@H]1COc2ncc(F)cc2CN2c3nc4c(cnn4cc3OC[C@H]2C)C(=O)N1 [Compound 14, (4R,13R)-8-fluoro-4,13-dimethyl-3,4,13,14-tetrahydro-6H-18,1-(metheno)[1,4]oxazino[3,4-i]pyrazolo[4,3-f]pyrido[3,2-l][1,4,8,10]oxatriazacyclotridecin-15(12H)-one] | < 0.0002 | 0.0336 | 0.0139
C[C@@H]1COc2cn3ncc4c3nc2N1Cc1cc(F)cnc1OC[C@H](F)CNC4=O [Compound 80, (7R,16R)-7,12-difluoro-16-methyl-5,6,7,8,16,17-hexahydro-4H,14H-1,19-(metheno)[1,4]-oxazino[4,3-e]pyrazolo[3,4-h]pyrido[2,3-b][1,5,7,11]oxa-triazacyclotetradecin-4-one] | < 0.0002 | 0.0444 | 0.134
